# Assay results published in patent publication US10889553B2, “Asymmetric triazole benzamide derivatives and the compositions and methods of treatment regarding the same” (NysnoBio Ireland DAC, priority 2017, dated 2021).
# What was measured:
# Assay in all cases: Selectivity screen, radioligand displacement
# Type in all cases: binding
# beta 1 (h) = beta 1 (h) (Homo sapiens, UniProt P08588); settings: read-out: % Inhib beta 1 (h)
# Source text: (§1) If the % inhibition is less than 50%, the test compounds is consider to have no effect.
# PDE3A (h) = PDE3A (h) (Homo sapiens, UniProt Q14432); settings: read-out: % Inhib PDE3A (h)
# Source text: as §1
# dopamine transporter (h) = dopamine transporter (h) (Homo sapiens, UniProt Q01959); settings: read-out: % Inhib dopamine transporter (h)
# Source text: as §1
# 5-HT transporter (h) = 5-HT transporter (h) (Homo sapiens, UniProt P31645); settings: read-out: % Inhib 5-HT transporter (h)
# Source text: as §1
# CB2 (h) = CB2 (h) (Homo sapiens, UniProt P34972); settings: read-out: % Inhib CB2 (h)
# Source text: as §1
# KV channel = settings: Compound 42 at 10 μM
# Source text: as §1
# 5-HT2B (h) = 5-HT2B (h) (Homo sapiens, UniProt P41595); settings: read-out: % Inhib 5-HT2B (h)
# Source text: as §1
# CB1 (h) = CB1 (h) (Homo sapiens, UniProt P21554); settings: read-out: % Inhib CB1 (h)
# Source text: as §1
# acetylcholinesterase (h) = acetylcholinesterase (h) (Homo sapiens, UniProt P22303); settings: read-out: % Inhib acetylcholinesterase (h)
# Chain of acetylcholinesterase (h) (P22303 32-614): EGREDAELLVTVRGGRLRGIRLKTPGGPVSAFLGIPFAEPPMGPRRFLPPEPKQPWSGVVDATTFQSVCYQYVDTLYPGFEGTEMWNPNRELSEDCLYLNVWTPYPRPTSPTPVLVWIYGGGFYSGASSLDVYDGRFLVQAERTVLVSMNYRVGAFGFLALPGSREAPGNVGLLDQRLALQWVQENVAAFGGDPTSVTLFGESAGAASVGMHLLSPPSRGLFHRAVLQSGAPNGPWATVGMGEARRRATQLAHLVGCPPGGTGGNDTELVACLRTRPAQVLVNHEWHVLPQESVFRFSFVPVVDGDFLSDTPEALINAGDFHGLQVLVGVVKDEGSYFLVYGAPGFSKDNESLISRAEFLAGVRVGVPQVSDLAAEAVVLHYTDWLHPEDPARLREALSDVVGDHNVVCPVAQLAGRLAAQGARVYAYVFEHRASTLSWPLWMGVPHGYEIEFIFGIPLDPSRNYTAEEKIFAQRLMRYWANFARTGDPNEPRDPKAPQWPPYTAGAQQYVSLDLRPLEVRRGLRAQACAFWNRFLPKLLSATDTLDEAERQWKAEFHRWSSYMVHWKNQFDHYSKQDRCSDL
# Source text: as §1
# A2A(h) = A2A(h) (Homo sapiens, UniProt P29274); settings: read-out: % Inhib A2A(h)
# Chain of A2A(h) (P29274 whole entry): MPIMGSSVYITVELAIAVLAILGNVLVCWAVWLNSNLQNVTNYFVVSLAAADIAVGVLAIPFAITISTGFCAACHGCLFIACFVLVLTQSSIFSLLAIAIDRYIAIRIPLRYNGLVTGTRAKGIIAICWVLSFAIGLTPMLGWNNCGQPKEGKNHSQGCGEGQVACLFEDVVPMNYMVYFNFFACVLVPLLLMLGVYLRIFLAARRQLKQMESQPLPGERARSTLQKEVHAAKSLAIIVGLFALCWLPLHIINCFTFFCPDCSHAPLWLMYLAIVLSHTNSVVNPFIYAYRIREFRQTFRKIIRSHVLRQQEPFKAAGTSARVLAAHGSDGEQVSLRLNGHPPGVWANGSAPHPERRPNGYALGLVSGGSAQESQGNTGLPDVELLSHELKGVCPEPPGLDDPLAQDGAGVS
# Source text: as §1
# PDE4D2 (h) = PDE4D2 (h) (Homo sapiens, UniProt Q08499); settings: read-out: % Inhib PDE4D2 (h)
# Source text: as §1
# 5-HT1A (h) = 5-HT1A (h) (Homo sapiens, UniProt P08908); settings: read-out: % Inhib 5-HT1A (h)
# Chain of 5-HT1A (h) (P08908 whole entry): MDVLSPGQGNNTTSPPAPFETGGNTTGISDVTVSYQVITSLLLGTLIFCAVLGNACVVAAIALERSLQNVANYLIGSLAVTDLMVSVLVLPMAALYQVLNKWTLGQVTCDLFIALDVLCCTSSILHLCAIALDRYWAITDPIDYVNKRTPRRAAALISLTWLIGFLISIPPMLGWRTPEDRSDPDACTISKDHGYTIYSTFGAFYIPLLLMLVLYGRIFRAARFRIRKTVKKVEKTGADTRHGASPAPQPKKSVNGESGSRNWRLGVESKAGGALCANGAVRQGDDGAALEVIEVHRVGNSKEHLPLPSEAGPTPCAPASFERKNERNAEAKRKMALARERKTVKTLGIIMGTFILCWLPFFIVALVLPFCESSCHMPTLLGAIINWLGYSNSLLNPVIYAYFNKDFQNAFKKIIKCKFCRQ
# Source text: as §1
# H2 (h) = H2 (h) (Homo sapiens, UniProt P25021); settings: read-out: % Inhib H2 (h)
# Chain of H2 (h) (P25021 whole entry): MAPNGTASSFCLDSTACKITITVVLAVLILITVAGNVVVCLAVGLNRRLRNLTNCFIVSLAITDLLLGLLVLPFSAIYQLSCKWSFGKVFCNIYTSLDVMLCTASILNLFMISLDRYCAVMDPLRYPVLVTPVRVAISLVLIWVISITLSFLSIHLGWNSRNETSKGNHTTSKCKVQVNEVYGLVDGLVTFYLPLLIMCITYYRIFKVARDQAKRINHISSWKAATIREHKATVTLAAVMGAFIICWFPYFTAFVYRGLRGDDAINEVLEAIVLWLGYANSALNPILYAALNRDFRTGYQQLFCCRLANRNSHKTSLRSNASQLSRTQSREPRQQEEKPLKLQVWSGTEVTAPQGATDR
# Source text: as §1
# [1] = molecular target: norepinephrine transporter (h) (Homo sapiens, UniProt P23975); settings: read-out: % Inhib norepinephrine transporter (h)
# Source text: as §1
# 5-HT2A (h) = 5-HT2A (h) (Homo sapiens, UniProt P28223); settings: read-out: % Inhib 5-HT2A (h)
# Chain of 5-HT2A (h) (P28223 whole entry): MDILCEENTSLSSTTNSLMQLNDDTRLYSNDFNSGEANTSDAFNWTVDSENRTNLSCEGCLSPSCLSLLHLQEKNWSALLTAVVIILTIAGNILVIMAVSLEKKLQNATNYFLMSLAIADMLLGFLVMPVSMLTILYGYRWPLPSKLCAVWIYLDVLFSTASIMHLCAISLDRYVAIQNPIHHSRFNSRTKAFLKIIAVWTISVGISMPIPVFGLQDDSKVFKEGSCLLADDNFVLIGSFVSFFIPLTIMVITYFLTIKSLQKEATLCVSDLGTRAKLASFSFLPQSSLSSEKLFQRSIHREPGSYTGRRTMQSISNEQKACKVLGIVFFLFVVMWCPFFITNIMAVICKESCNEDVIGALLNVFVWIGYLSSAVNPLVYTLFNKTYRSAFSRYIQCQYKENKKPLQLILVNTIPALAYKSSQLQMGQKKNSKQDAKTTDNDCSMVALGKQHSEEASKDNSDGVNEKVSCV
# Source text: as §1
# COX1(h) = COX1(h) (Homo sapiens, UniProt P23219); settings: read-out: % Inhib COX1(h)
# Source text: as §1
# NMDA = settings: Compound 42 at 10 μM
# Source text: as §1
# M1 (h) = M1 (h) (Homo sapiens, UniProt P11229)
# Source text: as §1
# alpha 1A (h) = alpha 1A (h) (Homo sapiens, UniProt P35348); settings: read-out: % Inhib alpha 1A (h)
# Source text: as §1
# CCK1 (CCKA) (h) = CCK1 (CCKA) (h) (Homo sapiens, UniProt P32238); settings: read-out: % Inhib CCK1 (CCKA) (h)
# Chain of CCK1 (CCKA) (h) (P32238 whole entry): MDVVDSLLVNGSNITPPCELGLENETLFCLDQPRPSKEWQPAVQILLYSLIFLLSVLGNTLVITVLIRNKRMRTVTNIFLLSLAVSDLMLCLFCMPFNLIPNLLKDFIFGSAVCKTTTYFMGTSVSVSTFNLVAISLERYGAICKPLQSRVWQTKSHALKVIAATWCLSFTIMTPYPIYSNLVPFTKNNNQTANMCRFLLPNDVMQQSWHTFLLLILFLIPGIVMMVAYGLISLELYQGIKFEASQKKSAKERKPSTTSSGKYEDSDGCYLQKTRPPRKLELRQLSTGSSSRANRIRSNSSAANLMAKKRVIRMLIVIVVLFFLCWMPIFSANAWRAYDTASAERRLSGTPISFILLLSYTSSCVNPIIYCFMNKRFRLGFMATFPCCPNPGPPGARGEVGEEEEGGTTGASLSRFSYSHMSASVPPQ
# Source text: as §1
# H1 (h) = H1 (h) (Homo sapiens, UniProt P35367)
# Chain of H1 (h) (P35367 whole entry): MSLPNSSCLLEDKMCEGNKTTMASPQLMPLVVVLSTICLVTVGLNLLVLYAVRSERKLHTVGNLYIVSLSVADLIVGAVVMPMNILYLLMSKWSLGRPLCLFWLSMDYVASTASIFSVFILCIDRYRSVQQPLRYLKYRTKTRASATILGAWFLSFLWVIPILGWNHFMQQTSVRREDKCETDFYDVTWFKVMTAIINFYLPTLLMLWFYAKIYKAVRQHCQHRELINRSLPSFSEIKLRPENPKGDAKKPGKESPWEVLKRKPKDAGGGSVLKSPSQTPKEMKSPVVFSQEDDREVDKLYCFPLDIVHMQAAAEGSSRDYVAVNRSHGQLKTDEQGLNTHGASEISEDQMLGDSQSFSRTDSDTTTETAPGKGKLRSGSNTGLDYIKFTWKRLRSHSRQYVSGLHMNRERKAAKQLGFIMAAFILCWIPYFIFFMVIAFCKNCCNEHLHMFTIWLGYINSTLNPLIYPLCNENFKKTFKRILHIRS
# Source text: as §1
# M2 (h) = M2 (h) (Homo sapiens, UniProt P08172); settings: read-out: % Inhib M2 (h)
# Chain of M2 (h) (P08172 whole entry): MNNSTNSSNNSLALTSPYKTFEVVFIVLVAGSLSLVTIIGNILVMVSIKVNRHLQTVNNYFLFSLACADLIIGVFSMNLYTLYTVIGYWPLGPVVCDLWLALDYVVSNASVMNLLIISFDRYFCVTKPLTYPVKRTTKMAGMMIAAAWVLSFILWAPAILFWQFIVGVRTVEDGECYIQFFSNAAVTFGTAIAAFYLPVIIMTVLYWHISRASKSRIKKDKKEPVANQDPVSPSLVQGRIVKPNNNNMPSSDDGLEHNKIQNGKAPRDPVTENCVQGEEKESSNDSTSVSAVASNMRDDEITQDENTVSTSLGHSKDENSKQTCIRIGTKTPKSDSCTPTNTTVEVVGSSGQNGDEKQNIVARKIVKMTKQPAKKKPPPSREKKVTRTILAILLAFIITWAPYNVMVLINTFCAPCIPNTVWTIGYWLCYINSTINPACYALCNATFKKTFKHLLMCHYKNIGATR
# Source text: as §1
# hERG potassium channel = hERG potassium channel (Homo sapiens, UniProt Q12809); settings: read-out: % Inhib Potassium Channel hERG (human)
# Source text: as §1
# ETA (h) = ETA (h) (Homo sapiens, UniProt P25101); settings: read-out: % Inhib ETA (h)
# Source text: as §1
# kappa (KOP) = kappa (KOP) (Rattus norvegicus, UniProt P34975); settings: read-out: % Inhib kappa (KOP)
# Source text: as §1
# 5-HT3 (h) = 5-HT3 (h) (Homo sapiens, UniProt P46098); settings: read-out: % Inhib 5-HT3 (h)
# Source text: as §1
# [2] = test system: Ca2+ channel (L, dihydropyridine); settings: Compound 42 at 10 μM
# Source text: as §1
# alpha 2A (h) = alpha 2A (h) (Homo sapiens, UniProt P08913); settings: read-out: % Inhib alpha 2A (h)
# Source text: as §1
# D2S (h) = D2S (h) (Homo sapiens, UniProt P14416); settings: read-out: % Inhib D2S (h)
# Chain of D2S (h) (P14416 1-414 isoform P14416-2): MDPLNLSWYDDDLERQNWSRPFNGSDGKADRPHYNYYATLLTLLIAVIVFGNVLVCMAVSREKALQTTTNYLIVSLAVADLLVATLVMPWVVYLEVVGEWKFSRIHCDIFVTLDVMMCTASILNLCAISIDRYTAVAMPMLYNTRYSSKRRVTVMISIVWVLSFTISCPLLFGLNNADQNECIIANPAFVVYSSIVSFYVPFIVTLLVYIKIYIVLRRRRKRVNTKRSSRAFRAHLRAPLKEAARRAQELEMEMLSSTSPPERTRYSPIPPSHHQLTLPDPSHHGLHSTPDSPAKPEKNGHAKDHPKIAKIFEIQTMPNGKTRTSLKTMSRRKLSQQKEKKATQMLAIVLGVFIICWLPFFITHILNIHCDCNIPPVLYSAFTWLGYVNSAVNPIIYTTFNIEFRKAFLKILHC
# Source text: as §1
# mu (MOP) (h) = mu (MOP) (h) (Homo sapiens, UniProt P35372); settings: read-out: % Inhib mu (MOP) (h)
# Chain of mu (MOP) (h) (P35372 whole entry): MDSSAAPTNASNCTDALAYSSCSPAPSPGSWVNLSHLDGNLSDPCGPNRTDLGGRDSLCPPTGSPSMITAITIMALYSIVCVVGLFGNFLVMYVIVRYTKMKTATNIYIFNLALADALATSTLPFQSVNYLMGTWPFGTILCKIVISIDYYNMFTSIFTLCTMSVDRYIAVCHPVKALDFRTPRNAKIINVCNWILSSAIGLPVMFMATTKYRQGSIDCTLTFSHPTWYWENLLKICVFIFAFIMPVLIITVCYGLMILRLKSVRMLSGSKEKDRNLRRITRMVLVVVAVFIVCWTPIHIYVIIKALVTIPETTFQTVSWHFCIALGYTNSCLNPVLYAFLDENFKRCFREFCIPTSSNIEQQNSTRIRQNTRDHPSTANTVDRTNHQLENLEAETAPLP
# Source text: as §1
# 5-HT1B = 5-HT1B (Rattus norvegicus, UniProt P28564); settings: read-out: % Inhib 5-HT1B
# Source text: as §1
# delta (DOP) (h) = delta (DOP) (h) (Homo sapiens, UniProt P41143); settings: read-out: % Inhib delta (DOP) (h)
# Source text: as §1
# Lck kinase (h) = Lck kinase (h) (Homo sapiens, UniProt P06239); settings: read-out: % Inhib Lck kinase (h)
# Source text: as §1
# Chain of beta 1 (h) (P08588 whole entry): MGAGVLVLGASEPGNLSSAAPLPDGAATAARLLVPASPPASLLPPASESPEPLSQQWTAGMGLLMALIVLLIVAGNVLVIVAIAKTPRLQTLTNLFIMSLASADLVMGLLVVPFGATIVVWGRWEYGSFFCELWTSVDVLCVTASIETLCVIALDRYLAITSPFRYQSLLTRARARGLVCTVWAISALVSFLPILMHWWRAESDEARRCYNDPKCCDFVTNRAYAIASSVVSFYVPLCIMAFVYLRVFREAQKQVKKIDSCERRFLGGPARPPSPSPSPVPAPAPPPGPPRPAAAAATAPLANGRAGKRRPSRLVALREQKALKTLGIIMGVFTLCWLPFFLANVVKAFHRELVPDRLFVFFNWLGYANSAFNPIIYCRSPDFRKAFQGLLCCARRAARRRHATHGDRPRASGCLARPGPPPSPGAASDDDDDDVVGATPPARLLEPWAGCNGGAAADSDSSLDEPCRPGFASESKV
compound,measurement,setting,value
"Cc1ccccc1C(=O)Nc1nc(NC(=O)c2ccccc2C)n(-c2ccc(OC(F)(F)F)cc2)n1 [Compound 42, N,N′-(1-(4-(trifluoromethoxy)phenyl)-1H-1,2,4-triazole-3,5-diyl)bis(2-methylbenzamide)]",inhibition at 10 µM,beta 1 (h),< 1%
same,inhibition at 10 µM,PDE3A (h),13%
same,inhibition at 10 µM,dopamine transporter (h),13%
same,inhibition at 10 µM,5-HT transporter (h),10%
same,inhibition at 10 µM,CB2 (h),< 1%
same,% Inhib KV channel,KV channel,1%
same,inhibition at 10 µM,5-HT2B (h),< 1%
same,inhibition at 10 µM,CB1 (h),< 1%
same,inhibition at 10 µM,acetylcholinesterase (h),1%
same,inhibition at 10 µM,A2A(h),7%
same,inhibition at 10 µM,PDE4D2 (h),35%
same,inhibition at 10 µM,5-HT1A (h),10%
same,inhibition at 10 µM,H2 (h),< 1%
same,inhibition at 10 µM,[1],1%
same,inhibition at 10 µM,5-HT2A (h),4%
same,inhibition at 10 µM,COX1(h),19%
same,% Inhib NMDA,NMDA,8%
same,inhibition at 10 µM,M1 (h),4%
same,inhibition at 10 µM,alpha 1A (h),16%
same,inhibition at 10 µM,CCK1 (CCKA) (h),< 1%
same,inhibition at 10 µM,H1 (h),< 1%
same,inhibition at 10 µM,M2 (h),< 1%
same,inhibition at 10 µM,hERG potassium channel,1%
same,inhibition at 10 µM,ETA (h),< 1%
same,inhibition at 10 µM,kappa (KOP),3%
same,inhibition at 10 µM,5-HT3 (h),< 1%
same,"% Inhib Ca2+ channel (L, dihydropyridine)",[2],45%
same,inhibition at 10 µM,alpha 2A (h),< 1%
same,inhibition at 10 µM,D2S (h),< 1%
same,inhibition at 10 µM,mu (MOP) (h),6%
same,inhibition at 10 µM,5-HT1B,1%
same,inhibition at 10 µM,delta (DOP) (h),9%
same,inhibition at 10 µM,Lck kinase (h),8%
